In PMC4326127, “Collagen Inhibitory Peptide R1R2 Mediates Vascular Remodeling by Decreasing Inflammation and Smooth Muscle Cell Activation” (PLoS ONE, 2015):

Legend:
[1] = system: U937 cells / HUVECs; assay: Monocyte U937 adhesion to HUVECs; assay type: cell-based, human; settings: HUVECs treated with 10 ng/ml TNF-α; calcein-AM U937 5x10^5 cells/well, 30 minutes at 37°C; fluorescence 485/535; mean ± SD
Experimental: (§1) For in vivo experiments, the data are shown as the mean ± SEM. For in vitro experiments, the data shown are the means ± SD of a representative experiment, at least 3 independent experiments were performed. One-way ANOVA with post-hoc testing were used for data analysis with GraphPad Prism software (GraphPad, San Diego, CA). If normality test failed, nonparametric Kruskal-Wallis test followed by Dunn's post-hoc test were used. P > 0.05 was not considered significant.

[2] = system: VCAM-1; assay: VCAM-1 IHC in ligated carotid artery; assay type: in vivo, FVB/NJ (FVB) mice; settings: 7 days after ligation; percent of positively stained area; mean ± SEM; R1R2 n = 7, control peptide n = 9
Experimental: (§2) Animals were anesthetized with isoflurane inhalation. The left common carotid artery was exposed, dissected free from the surrounding connective tissue and completely ligated with 6-0 silk suture just proximal to the carotid bifurcation. […] 4–10 mice were included in each experimental group.
(§3) Paraffin sections selected from the first mm of the carotid artery in each group were used for immunohistochemistry (IHC). […] Sections were then incubated with appropriate biotinylated secondary antibodies followed by avidin-biotin immunoperoxidase system (Vector Laboratories, Burlingame, CA). Liquid DAB Substrate Chromogen system (Dako, Carpinteria, CA) was used for detection.
(§4) Quantitative IHC analysis was performed on digital images captured with a 20x objective by using Image-Pro Plus software. Data from 3–6 mice for each group were averaged, and the average values ± SEM were shown. For FN, collagen type I, SM-MHC and SM α-actin, color digital images were transformed into gray scale, and the sum of the optical densities from the intima+media area in each section was determined. […] The percent of positive cells is reported as the proliferation index. […] The intima+media region was traced manually. The percent of positively stained area in intima+media to the total traced area was assessed.
For in vivo experiments, the data are shown as the mean ± SEM. […]

[3] = system: CD45 (+) leukocytes; assay: CD45 IHC, leukocyte infiltration in carotid intima-media; assay type: in vivo, FVB/NJ (FVB) mice
Experimental: as §2, §3, §4, §1

[4] = system: VCAM-1; assay: Western blot of VCAM-1 in TNF-α-treated HUVECs; assay type: cell-based, human; settings: in words
Experimental: (§5) Human umbilical vein endothelial cells (HUVECs) and A7r5 SMCs were provided by Resource Center (SB3, NSC 100-2325-B-080-001), National Research Program for Biopharmaceuticals (Hsinchu, Taiwan). HUVECs were maintained in M199 (Life Technologies, Carlsbad, CA) with 25U/ml heparin (Sigma-Aldrich, St. Louis, MO), 10% fetal bovine serum (FBS) and endothelial cell growth supplement (ECGS; Millipore, Billerica, MA). A7r5 SMCs were grown in Dulbecco’s Modified Eagle’s Medium (DMEM) containing high glucose, supplemented with 10% fetal bovine serum. Human U937 cells were grown in RPMI1640 with 10% FBS.
Tissues or cells were homogenized with RIPA buffer supplemented with protease inhibitor cocktail (Sigma-Aldrich, St. Louis, MO). Cell lysates were spun at 12,000 rpm for 15 min at 4°C, then electrophoresed on 10% SDS-PAGE gel and transferred to nitrocellulose. […]
Fig 8 R1R2 decreases TNF-α-induced monocyte U937 cell adhesion to HUVECs and transendothelial migration and reduces ICAM-1 and VCAM-1 levels. […] Calcein-AM labeled U937 monocyte adhesion to TNF-α HUVECs was quantitated by fluorescence intensity. Microscopic images showing U937 monocytes adhering to HUVECs as assessed by in vitro adhesion assay. […]

[5] = system: A7r5 SMCs; assay: SMC migration, scrape wound assay; assay type: cell-based
Experimental: as §5
A scrape wound assay was used to assess the effect of R1R2 and scrambled peptides on SMC migration as described. Briefly, A7r5 SMCs were grown until 90% confluent, followed by serum starvation and treatment with R1R2 and scrambled peptides for 36 hours. Several scrape wounds were then performed across the dish with a sterile yellow pipet tip. We initiated the experiment with treatment of cells with 10 ng/ml PDGF-BB. Photographs of the wound area were taken immediately after PDGF-BB addition (0 hour) and 30 hours postwounding with an Olympus CKX-41 microscope connected to a camera. At least three photographs were taken per group at each time point. Wound areas were determined using Image-Pro Software (Media Cybernetics, MD). Measurement of migration was determined by subtracting the cell-free area 30 hours after PDGF-BB addition from the cell-free area in the beginning of scrape wounds.
For in vivo experiments, the data are shown as the mean ± SEM. For in vitro experiments, the data shown are the means ± SD of a representative experiment, at least 3 independent experiments were performed. […]
Fig 6 R1R2 reduces SMC proliferation and migration. […] Cells were counted at the indicated time in the figure (n = 5). […] (C) Quantitation of SMC migration in the scratch wound healing assay was performed by subtracting the cell-free area 30 hours after PDGF-BB stimulation from the cell-free area in the beginning (n = 5). * indicates p<0.05 and ** p< 0.01.

[6] = system: U937 cells / HUVECs; assay: Monocyte U937 transendothelial migration assay; assay type: cell-based, human; settings: HUVECs on 5um transwells, 10 ng/ml TNF-α; U937 1.5x10^5 cells/transwell, 1.5 hours at 37°C; fluorescence 485/535; mean ± SD
Experimental: as §1

[7] = system: A7r5 SMCs; assay: A7r5 SMC growth study; assay type: cell-based
Experimental: as §5
A7r5 cells and HUVECs were growth-arrested and then stimulated with 10% FBS or 10 ng/ml TNF-αovernight after serum starvation as indicated in the figure legend. Briefly, trypan blue-excluding cells were counted with a hemocytometer, and data were analyzed using GraphPad Prism Software (San Diego, CA) as in previous studies. A second observer performed a similar analysis to verify the initial findings.
as §1
Fig 6 R1R2 reduces SMC proliferation and migration. (A) A7r5 SMC growth study over 96 hours. After serum starvation and treatment with R1R2 or scrambled peptides for 36 hours, cells were stimulated with 10% FBS over 96 hours. Cells were counted at the indicated time in the figure (n = 5). (B) A7r5 SMCs were pretreated with R1R2 or scramble peptide for 36 hours. […] (C) Quantitation of SMC migration in the scratch wound healing assay was performed by subtracting the cell-free area 30 hours after PDGF-BB stimulation from the cell-free area in the beginning (n = 5). * indicates p<0.05 and ** p< 0.01.

GLNGENQKEPEQGERGEAGPPLSGLSGNNQGRPSLPGLNGENQKEPEQGERGEAGPP [R1R2]
U937 adhesion to HUVECs [1]: 197697 ± 34184 cells per cm^2
VCAM-1 (+) area in intima-media [2]: 10.36 ± 1.802%
CD45 (+) area in intima-media ([3]; 7 days after ligation, percent of positively stained area, mean ± SEM, R1R2 n = 5, scrambled n = 6): 0.094 ± 0.035%
reduction of inflammatory cell infiltration into the vessel ([3]; carotid artery, periadventitial pluronic gel): ~78%
VCAM-1 expression on HUVECs [4]: significantly decreased
effect on SMC migration (wound healing images) ([5]; 30 hours post PDGF-stimulation, versus scrambled peptide, in words): cells migrated more slowly
SMC migration (cell-free area at 0 h minus cell-free area at 30 hours) ([5]; A7r5 SMCs, 36 hours peptide pretreatment, 10 ng/ml PDGF-BB, 30 hours, mean ± SD, n = 3): 130149 ± 53295
U937 transendothelial migration [6]: 65633 ± 20412 cells per well
effect on A7r5 SMC growth ([7]; 48–96 hours, in comparison with scrambled peptide, in words): significantly inhibited A7r5 SMC growth after 48–96 hours
A7r5 SMC growth, cell number ([7]; 48hr, 10% FBS after serum starvation and 36 hours peptide treatment, hemocytometer, trypan blue, mean ± SD, n = 5): 1.5 ± 0.224 x 10^5
